The subject of this experiment is rat PCA. The experiment can be described thus: Passive cutaneous anaphylaxis (PCA) in rats. Type of experiment: in vivo. Particulars: iv, PBS with NaHCO3, time 0 mins before antigen challenge. As for the experimental part:
Serum containing heat labile homocytotropic antibody was raised in rats to crystallised ovalbumin (Grade 3 Sigma) by the Method of I.Mota (Immunology 7, 681 (1964)) using Bordetella pertussis vaccine ([…] Burroughs Welcome) as adjuvant.
Passive cutaneous anaphylaxis (PCA) was carried out by a method based on that of Ovary and Bier, (Proc. Soc. Exp. Bio. Med., 81, 584 (1952)) as modified by Goose and Blair (Immunology, 16, 749 (1969)) Male Sprague Dawley rats 230-340 gm were given 0.1 ml of each of six two fold serial dilutions of pooled antiserum in 0.9% saline (Polyfusor Boots) injected intradermally into separate sites on their shaved backs. 72 hours later the rats were challenged by intravenous injection of 0.3 ml of a 1% solution of ovalbumin in isotonic saline buffered with 0.05M, pH 7.2 Sorenson'Buffer (Bactohaemagglutination buffer Difco Laboratories), mixed with 0,2 ml of a 5% solution of Pontamine Sky Blue (6 BX C.l. 24410 Raymond A Lamb) in isotonic saline. The rats were killed after 20 minutes and the diameter of the blue wheals at the antibody injection sites was measured on the outer surface of the skin. The starting dilution of the serum was adjusted so that there was no response, after challenge, at the injection site of the highest dilution and a maximum response at the lowest dilutions. Typically, six twofold serial dilutions of the serum from 1/4 to 1/128 were used.
Compounds were tested for their ability to reduce the diameter of the wheals at those intradermal sites which in control animals gave less than maximum response. Each dose of the compounds was administered to six rats at a measured time prior to intravenous challenge with ovalbumin. Control groups of six rats were given the same volume (0.2 ml: 100g-^1) of carrier fluid at the same time prior to the challenge.
The results were calculated as follows: % inhibition of PCA = 100 (1 - a/b) where a = the sum of the diameters of the wheals produced in the test animal at the sites of antibody dilutions as used in control groups and b = the mean sum of the diameters of the wheals produced in the control group of animals at those antibody sites where at least five out of six of the animals gave less than maximum response. A typical variation in the control group of animals was SEM± 6%.

The structures appear in SMILES notation.

By inhibition in vivo is commonly meant the drop in the measured response relative to a control, in per cent. `CSc1cccc2c1C(=O)c1nn[nH]c1C2=O` [Example 1, 4,9-Dihydro-4,9-dioxo-5-methylthio-lH-naphtho [2,-3-d]-v-triazole] came in with an inhibition in vivo at 0.25 mg/kg of 23%, an inhibition in vivo at 0.5 mg/kg of 35% and an inhibition in vivo at 1 mg/kg of 68%.

In turn, `CCSc1cccc2c1C(=O)c1nn[nH]c1C2=O` [Example 2, 4,9-Dihydro-4,9-dioxo-5-ethylthio-1H-naphtho[2,3-d]-v-triazole] showed an inhibition in vivo at 0.125 mg/kg of 31%, an inhibition in vivo at 0.25 mg/kg of 27% and an inhibition in vivo at 0.5 mg/kg of 40%.

The compound `C[S+]([O-])c1cccc2c1C(=O)c1nn[nH]c1C2=O` (stereo not shown) [Example 3, 4,9-Dihydro-4,9-dioxo-5-methylsulphinyl-lH-naphtho-[2,3-d]-v-triazole] showed an inhibition in vivo at 0.125 mg/kg of 56%, an inhibition in vivo at 0.25 mg/kg of 79% and an inhibition in vivo at 0.5 mg/kg of 84%. Further, under “0.0625 mg/kg”, the inhibition in vivo at 0.0625 mg/kg turned out to be 35%.

Take `CS(=O)(=O)c1cccc2c1C(=O)c1nn[nH]c1C2=O` [Example 4, 4,9-Dihydro-4,9-dioxo-5-methylsulphonyl-lH-naphtho-[2,3-d]-v-triazole]: testing at 1 mg/kg gave an inhibition in vivo of 44% and the inhibition in vivo at 10 mg/kg was determined as 88%.

In turn, `CC[S+]([O-])c1cccc2c1C(=O)c1nn[nH]c1C2=O` (stereo not shown) [Example 5, 4,9-dihydro-4,9-dioxo-5-ethysulphinyl-1H-naphtho[2,3-d]-v-triazole] returned an inhibition in vivo at 0.1 mg/kg of 65% and an inhibition in vivo at 0.5 mg/kg of 39%.

Consider `CCS(=O)(=O)c1cccc2c1C(=O)c1nn[nH]c1C2=O` [Example 6, 4,9-Dihydro-4,9-dioxo-5-ethylsulphonyl-lH-naphtho[2,3-dl-v-triazole], for which 1 mg/kg produced 39% inhibition in vivo and the inhibition in vivo at 10 mg/kg was 82%.

`CCCSc1cccc2c1C(=O)c1nn[nH]c1C2=O` [Example 7, 4,9-Dihyciro-4,9-dioxo-5-propylthio-1H-naphtho[2,3-d]-y-triazole]: the inhibition in vivo at 0.5 mg/kg was 68% and the inhibition in vivo at 5 mg/kg is 88%.

Turning to `CCC[S+]([O-])c1cccc2c1C(=O)c1nn[nH]c1C2=O` (stereo not shown) [Example 8, 4,9-Dihydro-4,9-dioxo-5-propylsulphinyl-1H-naphtho[2,3-d] -v-triazole], 0.1 mg/kg produced 74% inhibition in vivo and the inhibition in vivo at 0.5 mg/kg was found to be 88%.

As for `CCCS(=O)(=O)c1cccc2c1C(=O)c1nn[nH]c1C2=O` [Example 9, 4,9-Dihydro-4,9-dioxo-5-propylsulphonyl-1H-naphtho[2,3-d] -v-triazole], testing at 1 mg/kg gave an inhibition in vivo of 51% and the inhibition in vivo at 10 mg/kg came to 87%.

`CSc1c(C)c(C)cc2c1C(=O)c1nn[nH]c1C2=O` [Example 10, 6,7-Dimethyl-4,9-dihydro-4,9-dioxo-5-methylthio-1H-naphtho[2,3-d]-v-triazole]: the inhibition in vivo at 0.5 mg/kg was 71% and at 5 mg/kg the inhibition in vivo was 94%.

Compound `Cc1cc2c(c([S+](C)[O-])c1C)C(=O)c1nn[nH]c1C2=O` (stereo not shown) [Example 11, 6,7-Dimethyl-4,9-dihydro-4,9-dioxo-5-methylsulphinyl-1H-naphtho [2,3-d]-v-triazole] gave an inhibition in vivo at 0.1 mg/kg of 50% and an inhibition in vivo at 0.5 mg/kg of 88%.

Regarding `Cc1cc2c(c(S(C)(=O)=O)c1C)C(=O)c1nn[nH]c1C2=O` [Example 12, 6,7-Dimethyl-4,9-dihydro-4,9-dioxo-5-methylsulphonyl-1H-na^phtho [2,3-d]-v-triazole], the inhibition in vivo at 1 mg/kg is 92% and the inhibition in vivo at 10 mg/kg came to 92%.

(Values after patent publication EP0097468A2, “Thio-naphthotriazoles, methods for producing them and their use in treating allergic diseases” (BEECHAM GROUP PLC, priority 1982, dated 1984).)
